# Legend:
# Plasmodium falciparum [1] = experiment: Antimalarial activity against pyrimethamine-resistant Plasmodium falciparum 7G8 after 48 hrs incubation by [3H]hypoxanthine incorporation assay
# [2] = target: Voltage-gated L-type calcium channel (Rattus norvegicus, UniProt P22002+Q02485+P27732); experiment: Binding affinity to rat L-type calcium channel
# [3] = target: Prostaglandin G/H synthase 1 (Homo sapiens, UniProt P23219); experiment: Binding affinity to human recombinant COX1
# [4] = Mutagenic activity in Salmonella Typhimurium by Ames test; format: toxicity; conditions: salmonella enterica subsp. enterica serovar typhimurium
# Mu-type opioid receptor = Mu-type opioid receptor (Homo sapiens, UniProt P35372); experiment: Binding affinity to human recombinant opiate mu receptor
# [5] = target: Delta-type opioid receptor (Homo sapiens, UniProt P41143); experiment: Binding affinity to human recombinant opiate delta receptor
# [6] = target: 5-hydroxytryptamine receptor 3A (Homo sapiens, UniProt P46098); experiment: Binding affinity to human recombinant serotonin 5HT3 receptor
# 5-hydroxytryptamine receptor 3A, sequence (P46098 whole entry): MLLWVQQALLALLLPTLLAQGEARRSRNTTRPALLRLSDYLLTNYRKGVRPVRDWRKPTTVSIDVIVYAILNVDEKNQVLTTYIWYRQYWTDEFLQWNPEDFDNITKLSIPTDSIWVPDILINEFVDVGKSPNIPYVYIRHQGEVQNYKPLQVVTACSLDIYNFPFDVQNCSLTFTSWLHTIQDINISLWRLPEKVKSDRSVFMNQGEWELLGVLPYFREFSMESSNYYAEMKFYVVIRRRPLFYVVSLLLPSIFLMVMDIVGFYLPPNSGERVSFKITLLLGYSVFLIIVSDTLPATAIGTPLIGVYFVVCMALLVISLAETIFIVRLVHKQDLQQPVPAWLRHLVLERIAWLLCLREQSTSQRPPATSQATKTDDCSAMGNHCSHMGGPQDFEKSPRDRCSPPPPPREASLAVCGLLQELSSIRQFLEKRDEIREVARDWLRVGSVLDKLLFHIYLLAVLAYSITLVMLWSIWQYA
# Plasmodium berghei [7] = experiment: Antimalarial activity against Plasmodium berghei GFP ANKA infected in NMRI mice (Mus musculus) assessed as survival at 10 mg/kg, perorally administered as single dose as single dose 24 hrs post infection for 1 day measured 72 hrs post infection; format: functional; conditions: route oral
# [8] = target: Corticotropin-releasing factor receptor 1 (Homo sapiens, UniProt P34998); experiment: Binding affinity to human recombinant CRF1 receptor
# Corticotropin-releasing factor receptor 1, sequence (P34998 whole entry): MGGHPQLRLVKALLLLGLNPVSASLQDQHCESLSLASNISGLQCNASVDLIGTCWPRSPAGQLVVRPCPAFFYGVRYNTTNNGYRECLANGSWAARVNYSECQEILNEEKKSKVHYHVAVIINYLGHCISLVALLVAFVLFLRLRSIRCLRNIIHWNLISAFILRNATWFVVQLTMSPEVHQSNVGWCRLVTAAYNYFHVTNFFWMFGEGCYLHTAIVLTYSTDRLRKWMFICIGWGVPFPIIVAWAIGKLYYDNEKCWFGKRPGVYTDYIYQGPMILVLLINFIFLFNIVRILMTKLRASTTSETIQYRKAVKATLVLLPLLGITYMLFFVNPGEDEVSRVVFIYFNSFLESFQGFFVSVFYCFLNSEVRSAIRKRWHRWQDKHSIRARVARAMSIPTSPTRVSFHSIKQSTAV
# [9] = target: Sodium-dependent noradrenaline transporter (Homo sapiens, UniProt P23975); experiment: Binding affinity to human recombinant norepinephrine transporter
# [10] = target: Neurotensin receptor type 1 (Homo sapiens, UniProt P30989); experiment: Binding affinity to human recombinant neurotensin NT1 receptor
# Plasmodium berghei [11] = experiment: Antimalarial activity against Plasmodium berghei GFP ANKA infected in NMRI mice (Mus musculus) assessed as cure rate at 100 mg/kg, perorally administered as single dose 24 hrs post infection for 1 day measured 30 days post infection; format: functional; conditions: route oral
# Phosphodiesterase 3 = Phosphodiesterase 3 (Homo sapiens, UniProt Q14432+Q13370); experiment: Binding affinity to human recombinant PDE3; format: protein assay
# [12] = target: GABA-A receptor; agonist GABA site; experiment: Binding affinity to human recombinant GABAA receptor; format: protein-complex assay
# Plasmodium berghei [13] = experiment: Antimalarial activity against Plasmodium berghei GFP ANKA infected in NMRI mice (Mus musculus) assessed as cure rate at 50 mg/kg, perorally administered through 0.5% MCM/0.1%solutol HS15 formulation 24 hrs post infection for 3 days measured on day 30 post infection; format: functional; conditions: route oral
# Motilin receptor = Motilin receptor (Homo sapiens, UniProt O43193); experiment: Binding affinity to human recombinant motilin receptor
# Vasopressin V1a receptor = Vasopressin V1a receptor (Homo sapiens, UniProt P37288); experiment: Binding affinity to human recombinant vasopressin V1a receptor
# [14] = target: Type-1 angiotensin II receptor (Homo sapiens, UniProt P30556); experiment: Binding affinity to human recombinant angiotensin2 AT1 receptor
# Type-1 angiotensin II receptor, sequence (P30556 whole entry): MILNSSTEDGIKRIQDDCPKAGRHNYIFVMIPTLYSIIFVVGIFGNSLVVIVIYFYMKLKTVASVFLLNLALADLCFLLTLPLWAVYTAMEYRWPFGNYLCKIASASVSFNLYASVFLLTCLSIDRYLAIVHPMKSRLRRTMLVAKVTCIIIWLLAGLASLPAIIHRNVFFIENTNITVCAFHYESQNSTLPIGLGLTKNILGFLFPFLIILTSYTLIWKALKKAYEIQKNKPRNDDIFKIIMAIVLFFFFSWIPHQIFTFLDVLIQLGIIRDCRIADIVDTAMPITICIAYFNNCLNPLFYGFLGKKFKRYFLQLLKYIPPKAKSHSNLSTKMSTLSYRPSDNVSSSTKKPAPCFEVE
# [15] = Binding affinity to rat N-type calcium channel
# Plasmodium falciparum [16] = experiment: microbe, parasite or virus in culture; conditions: Dd2, 72 h
# Description: Antimalarial activity against Plasmodium falciparum Dd2 containing attB site inserted in parasite genome and using EF1-alpha promoter driven expressing ATP4 I398F/P990R mutant after 72 hrs by SYBR green based fluorescence assay
# [17] = Cytotoxicity against human THP1 cells after 4 days by XTT assay; format: cell-based; conditions: THP-1 cells
# [18] = target: Muscarinic acetylcholine receptor M3 (Homo sapiens, UniProt P20309); experiment: Binding affinity to human recombinant muscarinic M3 receptor
# Plasmodium falciparum [19] = experiment: Antimalarial activity against Plasmodium falciparum assessed as […] by SYBR green based fluorescence assay; format: functional, organism-based; conditions: Plasmodium falciparum
# Plasmodium falciparum [20] = experiment: microbe, parasite or virus in culture; conditions: Dd2, 72 h; remark: listed apart in the source
# [21] = target: Sodium-dependent dopamine transporter (Homo sapiens, UniProt Q01959); experiment: Binding affinity to human recombinant dopamine transporter
# [22] = Partition coefficient, log P of the compound at pH 7.4; format: physicochemical; conditions: octanol/water
# Plasmodium falciparum [23] = experiment: Antimalarial activity against Plasmodium falciparum 3D7 assessed as parasite growth inhibition at 1.6 nM after24 hrs by [3H]hypoxanthin incorporation assay; format: functional
# Mus musculus = experiment: Toxicity in Plasmodium berghei GFP ANKA infected NMRI mice (Mus musculus) assessed as reduction in parasitemia dosed in ETPGS formulation 1 day postinfection measured 72 hrs post infection; format: organism-based; conditions: in vivo
# [24] = Clearance in Wistar rat at 5 mg/kg, iv; format: ADME, organism-based; design: dose 5 mg/kg, route intravenous; conditions: in vivo
# [25] = target: Gastric inhibitory polypeptide receptor (Rattus norvegicus, UniProt P43219); experiment: Binding affinity to rat Gip receptor
# [26] = target: Kappa-type opioid receptor (Homo sapiens, UniProt P41145); experiment: Binding affinity to human recombinant opiate kappa receptor
# Plasmodium falciparum [27] = experiment: Inhibition of protein synthesis in NITD609-resistant Plasmodium falciparum Dd2 Clone1 within 1 hrs by [35S]Met/Cys incorporation assay; format: functional
# Melanocortin receptor 4 = Melanocortin receptor 4 (Homo sapiens, UniProt P32245); experiment: Binding affinity to human recombinant melanocortin MC4 receptor
# Melanocortin receptor 4, sequence (P32245 whole entry): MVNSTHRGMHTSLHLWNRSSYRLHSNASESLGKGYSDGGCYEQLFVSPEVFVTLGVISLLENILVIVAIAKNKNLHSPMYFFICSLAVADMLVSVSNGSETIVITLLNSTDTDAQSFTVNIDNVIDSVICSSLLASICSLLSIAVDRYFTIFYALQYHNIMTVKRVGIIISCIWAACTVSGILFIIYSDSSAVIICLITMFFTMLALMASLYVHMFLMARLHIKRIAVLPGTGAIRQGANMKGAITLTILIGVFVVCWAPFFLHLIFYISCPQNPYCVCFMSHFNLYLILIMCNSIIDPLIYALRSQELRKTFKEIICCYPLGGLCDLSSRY
# [28] = target: 5-hydroxytryptamine receptor 2A (Homo sapiens, UniProt P28223); experiment: Binding affinity to human recombinant serotonin 5-HT2A receptor
# 5-hydroxytryptamine receptor 2A, sequence (P28223 whole entry): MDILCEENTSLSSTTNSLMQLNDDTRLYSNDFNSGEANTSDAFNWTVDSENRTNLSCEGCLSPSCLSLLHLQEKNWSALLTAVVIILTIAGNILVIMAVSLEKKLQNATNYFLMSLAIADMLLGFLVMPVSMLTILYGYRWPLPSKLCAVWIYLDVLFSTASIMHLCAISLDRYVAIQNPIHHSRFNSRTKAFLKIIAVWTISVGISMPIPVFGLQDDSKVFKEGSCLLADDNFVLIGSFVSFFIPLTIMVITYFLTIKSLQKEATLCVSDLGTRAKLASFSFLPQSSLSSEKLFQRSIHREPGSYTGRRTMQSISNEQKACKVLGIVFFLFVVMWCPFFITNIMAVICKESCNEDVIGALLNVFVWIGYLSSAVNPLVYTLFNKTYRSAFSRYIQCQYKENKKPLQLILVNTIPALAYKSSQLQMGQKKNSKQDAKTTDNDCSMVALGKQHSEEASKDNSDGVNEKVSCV
# Plasmodium falciparum [29] = experiment: Antimalarial activity against Plasmodium falciparum NF54 after 48 hrs incubation by [3H]hypoxanthin incorporation assay
# [30] = target: Voltage-gated inwardly rectifying potassium channel KCNH2 (Homo sapiens, UniProt Q12809); experiment: Inhibition of human ERG by patch clamp method
# Voltage-gated inwardly rectifying potassium channel KCNH2, sequence (Q12809 whole entry): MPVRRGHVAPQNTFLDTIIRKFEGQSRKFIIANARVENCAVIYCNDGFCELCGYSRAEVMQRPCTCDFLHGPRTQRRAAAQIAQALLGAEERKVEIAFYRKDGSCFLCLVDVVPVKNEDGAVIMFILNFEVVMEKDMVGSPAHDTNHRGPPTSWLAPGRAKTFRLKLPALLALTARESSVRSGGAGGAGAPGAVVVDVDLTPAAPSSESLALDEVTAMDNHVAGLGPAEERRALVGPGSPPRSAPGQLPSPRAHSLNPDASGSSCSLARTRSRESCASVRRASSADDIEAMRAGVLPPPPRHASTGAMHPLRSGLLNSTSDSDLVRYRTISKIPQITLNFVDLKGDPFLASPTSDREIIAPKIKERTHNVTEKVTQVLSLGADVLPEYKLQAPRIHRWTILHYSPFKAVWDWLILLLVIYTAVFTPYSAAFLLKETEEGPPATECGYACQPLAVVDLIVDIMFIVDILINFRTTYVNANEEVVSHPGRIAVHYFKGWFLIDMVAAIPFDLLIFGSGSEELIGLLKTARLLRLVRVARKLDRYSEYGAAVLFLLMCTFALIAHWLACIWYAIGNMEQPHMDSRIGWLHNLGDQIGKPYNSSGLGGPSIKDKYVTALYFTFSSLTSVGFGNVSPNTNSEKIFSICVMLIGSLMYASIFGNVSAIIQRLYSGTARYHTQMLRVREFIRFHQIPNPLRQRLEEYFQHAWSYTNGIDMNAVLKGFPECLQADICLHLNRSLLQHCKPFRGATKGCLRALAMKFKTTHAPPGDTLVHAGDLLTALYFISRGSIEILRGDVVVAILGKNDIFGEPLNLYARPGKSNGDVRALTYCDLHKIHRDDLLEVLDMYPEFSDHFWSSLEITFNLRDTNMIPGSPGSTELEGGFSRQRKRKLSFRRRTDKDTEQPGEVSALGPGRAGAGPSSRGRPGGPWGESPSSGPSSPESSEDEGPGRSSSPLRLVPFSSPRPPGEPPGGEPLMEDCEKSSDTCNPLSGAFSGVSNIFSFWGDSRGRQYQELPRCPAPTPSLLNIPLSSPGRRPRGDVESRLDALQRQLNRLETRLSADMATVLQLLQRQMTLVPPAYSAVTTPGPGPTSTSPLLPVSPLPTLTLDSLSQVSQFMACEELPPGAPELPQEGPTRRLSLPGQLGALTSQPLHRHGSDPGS
# Melanocortin receptor 3 = Melanocortin receptor 3 (Homo sapiens, UniProt P41968); experiment: Binding affinity to human recombinant melanocortin MC3 receptor
# Melanocortin receptor 3, sequence (P41968 whole entry): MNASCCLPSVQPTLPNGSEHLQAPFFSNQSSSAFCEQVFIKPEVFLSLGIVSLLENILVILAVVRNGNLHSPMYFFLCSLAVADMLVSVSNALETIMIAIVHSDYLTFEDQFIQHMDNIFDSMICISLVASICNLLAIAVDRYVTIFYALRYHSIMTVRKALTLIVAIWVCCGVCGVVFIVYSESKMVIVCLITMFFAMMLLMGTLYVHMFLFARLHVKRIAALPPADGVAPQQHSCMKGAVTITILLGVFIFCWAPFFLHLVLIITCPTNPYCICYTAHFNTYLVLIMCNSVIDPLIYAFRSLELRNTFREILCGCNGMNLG
# [31] = Binding affinity to human recombinant adenosine transporter
# hERG (KCNH2) = hERG (KCNH2) (Homo sapiens, UniProt Q12809); experiment: Inhibition of human ERG at 30 uM
# hERG (KCNH2), sequence (Q12809 whole entry): as the sequence (Q12809 whole entry) above
compound,measurement,setting,value
C[C@H]1Cc2c([nH]c3cc(Cl)c(F)cc23)[C@@]2(N1)C(=O)Nc1ccc(Cl)cc12 [CIPARGAMIN],IC50,Plasmodium falciparum [1],0.0012 µM
same,IC50,[2],> 10 µM
same,IC50,[3],> 30 µM
same,Activity,[4],Non-toxic
same,IC50,Mu-type opioid receptor,> 10 µM
same,IC50,[5],> 10 µM
same,IC50,[6],> 10 µM
same,mean survival time at 10 mg/kg,Plasmodium berghei [7],13.3 days
same,IC50,[8],> 30 µM
same,IC50,[9],> 10 µM
same,IC50,[10],> 10 µM
same,Activity,Plasmodium berghei [11],100%
same,IC50,Phosphodiesterase 3,> 10 µM
same,IC50,[12],> 10 µM
same,Activity,Plasmodium berghei [13],100%
same,IC50,Motilin receptor,> 10 µM
same,IC50,Vasopressin V1a receptor,> 10 µM
same,IC50,[14],> 30 µM
same,IC50,[15],> 10 µM
same,IC50,Plasmodium falciparum [16],0.00189 µM
same,CC50 at 96 h,[17],14 µM
same,IC50,[18],> 10 µM
same,IC50,Plasmodium falciparum [19],0.0005 µM
same,IC50,Plasmodium falciparum [20],0.0028 µM
same,IC50,[21],> 10 µM
same,logD,[22],4.7
same,inhibition at 0.0016 µM,Plasmodium falciparum [23],> 90%
same,Activity,Mus musculus,Non-toxic
same,clearance,[24],3.48 mL/min/kg
same,IC50,[25],> 30 µM
same,IC50,[26],> 10 µM
same,inhibition (INH),Plasmodium falciparum [27],50%
same,IC50,Melanocortin receptor 4,> 30 µM
same,IC50,[28],> 10 µM
same,IC50,Plasmodium falciparum [29],0.0005 µM
same,IC50,[30],> 30 µM
same,IC50,Melanocortin receptor 3,> 30 µM
same,IC50,[31],> 30 µM
same,inhibition at 30 µM,hERG (KCNH2),52%

# Source: ChEMBL document CHEMBL1240532, “Spiroindolones, a potent compound class for the treatment of malaria” (Science, 2010)
